Measured values taken from US5118665A, “Anti-oxidative and anti-inflammatory metal:peptide complexes and uses thereof” (ProCyte Corporation, priority 1990, dated 1992).
Like-named read-outs stand apart in the source and are kept apart here. Each block holds one substance with its values, some of them ahead of it.

Tests used:
Format in all cases: biochemical
[1] = tested on: superoxide anion; assay: Superoxide dismutase mimetic activity, xanthine oxidase/NBT method; conditions: for IC50: read-out: CONC. FOR 50% INHIB.; for CONC. FOR 50% INHIB.: Table 4, ratio 2:1 (binary) or 1:1:1 (ternary with chelating agent), ug copper(II) added per reaction
Description: The reactions contained the following: 100 uM xanthine, 56 uM NBT (nitro blue tetrazolium) 1 unit of catalase, and 50 mM potassium phosphate buffer, pH 7.8. The reaction was initiated by the addition of xanthine oxidase in sufficient quantity to obtain an increase in absorbance at 560 nm of approximately 0.025/min. in a total sample volume of 1.7 ml. The xanthine oxidase was prepared fresh daily and stored on ice until used. All the components of the reaction are added except the xanthine oxidase and the spectrophotometer was adjusted to zero at 560 nm. The reaction was initiated by the addition of the xanthine oxidase. All reagents were obtained from Sigma Chemical Co.
Measurements of the absorbance at 560 nm were taken at 1-2 minute intervals for at least 16 minutes following addition of xanthine oxidase. A control consisted of reactions containing no metal:peptide complex.
All complexes were tested at a 2:1 molar ratio of peptide to metal. It should be noted that the absolute value found in enzymatic assays for SOD mimetic activity varries depending upon the enzyme lot used in the evaluation. Thus, the inclusion of GHL-Cu permits comparisons from experiment to experiment based on a normalized activity relative to GHL-Cu.
In this example, superoxide dismutase was measured by the xanthine oxidase/NBT method as described in Example 13. Each complex was tested relative to GHL-Cu assayed at the same time. All complexes were tested at a 2:1 molar ratio of peptide to metal.
In this example, superoxide dismutase was measured by the xanthine oxidase/NBT method as described in Example 13. Each compound was tested relative to GHL-Cu assayed at the same time. All complexes were tested at a 2:1 molar ratio of peptide to metal.
In this example, superoxide dismutase was measured by the xanthine oxidase/NBT method as described in Example 13. Each compound was tested relative to GHL-Cu or glycyl-L-histidyl-L-lysyl-L-valyl-L-phenylalanyl-valine:copper(II) ("GHLVFV-Cu") assayed at the same time. In this example, the amount of complex for 50% inhibition is expressed as ug copper(II) added per reaction necessary to achieve 50% inhibition of the control reaction.
In this example, superoxide dismutase was measured by the xanthine oxidase/NBT method as described in Example 13. Each compound was tested relative to GHL-Cu assayed at the same time.

[2] = tested on: ferritin; assay: Inhibition of ferritin iron release (bathophenanthroline disulfonate, A535); conditions: 10 um complex, peptide:metal 1:1; for RATE INC. A535 nm min: 200 uM ferritin, no addition = 0.0060; for PERCENT INHIBITION: versus reaction with no additions
Description: (§1) Iron release from ferritin was measured by incubating ferritin with 10 um of a metal:peptide complexes of the present invention and determining the amount of iron released. Reaction mixtures contained 0.33 mM xanthine, 25 mU/ml xanthine oxidase, and 90 U/ml catalase as described in Example 13. In addition, 200 uM ferritin was added as a source of iron and 150 uM bathophenanthroline disulfonate to chelate and released iron. The release of iron was measured as an increase in the absorption of 535 nm due to the ironbathophenanthroline complex. The data is presented in Table 6 as this absorption rate and as a percent inhibition of a reaction with no additions. All the metal:peptide complexes are at a molar ratio of peptide to metal of 1:1.

[3] = tested on: liposomes prepared from rat liver lipids; assay: Inhibition of ferritin and superoxide anion dependent lipid peroxidation (MDA formation); conditions: peptide:metal 1:1; for RATE nmole MDA/min/ml: incubations as Example 18, no addition = 0.220 (A), 0.150 (B); for PERCENT INHIBITION: versus reaction with no additions
Description: as §1
Lipid peroxidation was measured by determining the oxidation of lipids in liposomes prepared from rat liver lipids. Incubations were as described in Example 18 except that rat liver lipid […] were included. The oxidation was followed by determining the amount of malondialdehyde ("MDA") formed during the reaction. The data is presented in Table 7 as this absorption rate and as a percent inhibition of a reaction with no additions. All the metal:peptide complexes are at a molar ratio of peptide to metal of 1:1.

[4] = Table 2, GHL:Cu of the same experiment = 100, peptide:metal 2:1
[5] = Table 2, peptide:metal 2:1, experiments A-G, each with its own GHL:Cu control
[6] = Table 1, GHL:Cu of the same experiment = 100, peptide:metal 2:1
[7] = Table 1, peptide:metal 2:1, pH 7.8, experiments A-E, each with its own GHL:Cu control
[8] = Table 3, ratio 2:1, copper(II) versus manganese(II), experiments A, B
[9] = Table 3, ratio 2:1, reference of the same experiment = 100
[10] = Table 5, GHL:Cu of the same experiment = 100, ratio 2:1
[11] = Table 5, ratio 2:1, albumin binding moieties, experiments A, B
[12] = Table 4 experiment B, GHLVFV:Cu 2:1 = 100
[13] = Table 4 experiment A, GHL:Cu 2:1 = 100

RELATIVE to GHL-Cu [1, 4]: 75
IC50 [1, 5]: 20 µM
Substance: glycylL-lysyl-L-histidine:copper(II) [GLH:Cu]

RELATIVE to GHL-Cu [1, 6]: 561
IC50 [1, 7]: 10 µM
Substance: glycylL-histidyl-L-lysyl-L-alanyl-L-phenylalanyl-L-alanine:copper(II) [GHLAFA:Cu]

IC50 [1, 8]: 6 µM
RELATIVE to GHL-Cu [1, 9]: 2000
Substance: glycylL-lysyl-L-histidine:manganese(II) [GLH:Mn]

RELATIVE to GHL-Cu [1, 10]: 521
IC50 [1, 11]: 11 µM
Substance: glycylL-(3-methyl)-histidyl-L-lysyl-glycyl-L-tryptophan:copper(II) [G(3-Methyl)HLGW:Cu]

CONC. FOR 50% INHIB. [1]: 0.3 ug copper(II) per reaction
RELATIVE to GHL-Cu [1, 12]: 930
Substance: glycylL-histidyl-L-lysyl-L-valyl-L-phenylalanyl-L-valine:copper(II):imidaole [GHLVFV:Cu:Im]

CONC. FOR 50% INHIB. [1]: 0.2 ug copper(II) per reaction
RELATIVE to GHL-Cu [1, 12]: 1400
Substance: glycylL-histidyl-L-lysyl-L-valyl-L-phenylalanyl-L-valine:copper(II):histiine [GHLVFV:Cu:H]

RELATIVE to GHL-Cu [1, 10]: 4700
IC50 [1, 11]: 1 µM
Substance: glycylL-histidyl-L-lysyl-L-tryptophan:copper(II) [GHLW:Cu]

RELATIVE to GHL-Cu [1, 4]: 21
IC50 [1, 5]: 70 µM
Substance: lysylL-histidyl-L-glycine amide:copper(II) [LHG-Amide:Cu]

Further lines, the substance ahead of its results:

Substance: Lhistidyl-glycyl-L-lysine:copper(II) [HGL:Cu]
RELATIVE to GHL-Cu [1, 4]: 22300
IC50 [1, 5]: 0.3 µM
RATE INC. A535 nm min [2]: 0.0008 A535 nm min
PERCENT INHIBITION [2]: 87%
RATE nmole MDA/min/ml [3]: 0.020 nmole MDA/min/ml
PERCENT INHIBITION [3]: 87%

Substance: alanylL-histidyl-L-lysine:copper(II) [AHL:Cu]
RELATIVE to GHL-Cu [1, 4]: 563
IC50 [1, 5]: 6 µM

Substance: glycylL-histidyl-cadaverine:copper(II) [GHCadaverine:Cu]
RELATIVE to GHL-Cu [1, 4]: 118
IC50 [1, 5]: 17 µM

Substance: glycylL-histidyl-L-lysine npalmityl ester:copper(II) [GHL-Palmityl Ester:Cu]
RELATIVE to GHL-Cu [1, 6]: 231
IC50 [1, 7]: 24 µM

Substance: lysylL-histidyl-caprolactam:copper(II) [GHCaprolactam:Cu]
RELATIVE to GHL-Cu [1, 4]: 4500
IC50 [1, 5]: 0.8 µM

Substance: lysylL-histidyl-glycyl-L-valyl-L-phenylalanyl-L-valine:copper(II) [LHGVFV:Cu]
RELATIVE to GHL-Cu [1, 6]: 46
IC50 [1, 7]: 13 µM

Substance: glycylL-(3-methyl)-histidyl-L-lysine:copper(II) [G(3-Methyl)HL:Cu]
RELATIVE to GHL-Cu [1, 4]: 616
IC50 [1, 5]: 8 µM
RATE INC. A535 nm min [2]: 0.0010 A535 nm min
PERCENT INHIBITION [2]: 83%
RATE nmole MDA/min/ml [3]: 0.104 nmole MDA/min/ml
PERCENT INHIBITION [3]: 31%

Substance: glycylL-histidyl-L-lysine noctyl amide:copper(II) [GHL-Octyl Amide:Cu]
RELATIVE to GHL-Cu [1, 6]: 182
IC50 [1, 7]: 17 µM

Substance: glycyl-L-histidyl-L-lysine n-octyl ester:copper(II) [GHL-Octyl Ester:Cu]
RELATIVE to GHL-Cu [1, 6]: 810
IC50 [1, 7]: 7 µM
IC50 [1, 8]: 11 µM
RELATIVE to GHL-Cu [1, 9]: 100
RATE INC. A535 nm min [2]: 0.0012 A535 nm min
PERCENT INHIBITION [2]: 80%
RATE nmole MDA/min/ml [3]: 0.060 nmole MDA/min/ml
PERCENT INHIBITION [3]: 73%

Substance: glycylL-histidyl-L-lysine noctyl ester:manganese(II) [GHL-Octyl:Mn]
IC50 [1, 8]: 2 µM
RELATIVE to GHL-Cu [1, 9]: 611

Substance: Lhistidyl-glycyl-L-lysine:manganese(II) [HGL:Mn]
IC50 [1, 8]: 2 µM
RELATIVE to GHL-Cu [1, 9]: 2000

Substance: lysylL-histidyl-L-glycine noctyl ester:copper(II) [LHG-Octyl Ester:Cu]
RELATIVE to GHL-Cu [1, 6]: 60
IC50 [1, 7]: 10 µM

Substance: alanylL-histidyl-L-lysine:manganese(II) [AHL:Mn]
IC50 [1, 8]: 6 µM
RELATIVE to GHL-Cu [1, 9]: 667

Substance: glycylL-histidyl-L-lysyl-L-valyl-L-phenylalanyl-L-valine:copper(II) [GHLVFV:Cu]
RELATIVE to GHL-Cu [1, 6]: 229
IC50 [1, 7]: 23 µM
CONC. FOR 50% INHIB. [1]: 2.8 ug copper(II) per reaction
RELATIVE to GHL-Cu [1, 12]: 100
RATE INC. A535 nm min [2]: 0.0011 A535 nm min
PERCENT INHIBITION [2]: 82%
RATE nmole MDA/min/ml [3]: 0.140 nmole MDA/min/ml
PERCENT INHIBITION [3]: 36%

Substance: glycylL-histidyl-L-lysine:copper(II):imidazole [GHL:Cu:Im]
CONC. FOR 50% INHIB. [1]: 1.3 ug copper(II) per reaction
RELATIVE to GHL-Cu [1, 13]: 246

Substance: glycyl-L-histidyl-L-lysine:copper(II) [GHL:Cu, reference compound]
RELATIVE to GHL-Cu [1, 6]: 100
RELATIVE to GHL-Cu [1, 4]: 100
RELATIVE to GHL-Cu [1, 9]: 100
CONC. FOR 50% INHIB. [1]: 3.2 ug copper(II) per reaction
RELATIVE to GHL-Cu [1, 13]: 100
RELATIVE to GHL-Cu [1, 10]: 100
RATE INC. A535 nm min [2]: 0.0016 A535 nm min
PERCENT INHIBITION [2]: 73%
RATE nmole MDA/min/ml [3]: 0.084 nmole MDA/min/ml
PERCENT INHIBITION [3]: 62%

Substance: glycylL-(3-benzyl)-histidyl-L-lysine:copper(II) [G(3-Benzyl)HL:Cu]
RELATIVE to GHL-Cu [1, 4]: 145
IC50 [1, 5]: 33 µM

Substance: glycylL-histidyl-L-lysine:copper(II):histidine [GHL:Cu:H]
CONC. FOR 50% INHIB. [1]: 0.2 ug copper(II) per reaction
RELATIVE to GHL-Cu [1, 13]: 1600
